Results published in patent publication US20100197765A1, “METHOD FOR PROMOTING THE EXPRESSION OF P53, AND P53 EXPRESSION PROMOTER FOR USE IN THE METHOD” (THE UNIVERSITY OF TOKUSHIMA, priority 2007, published 2010).

Legend:
[1] = test system: HCT116 cells; experiment: p53 mRNA, vegf IresRNA and vegf mRNA in HCT116 cells exposed to genotoxic stress (Northern); format: cell-based, human
Procedure: HCT116 cells (parent cells) were exposed to genotoxic stress that upregulates the expression of p53 mRNA. […] Also, HCT116 cells were exposed to UV-B for 1 minute. Then, after placing them under non-exposed conditions for a predetermined time (6, 12 hours), the expressions were examined in the same manner as in the above.

[2] = test system: p53; experiment: p53 mRNA (quantitative RT-PCR) and protein in HCT116 clones stably expressing vegf IresRNA, cisplatin treated; format: cell-based, human; conditions: mock HCT116 cells, cisplatin 5 μg/mL, 6 h, 12 h vs 0 h
Description: Full length cDNAs of vegf IresRNA having a sequence from base 600 to base 879 in 5′ UTR of vegf mRNA of SEQ ID NO. 1 were inserted into plasmid vectors pcDNA3.1 (Invitrogen). Thus, vegf IresRNA expression vectors (pcDNA-vegf Ires) were produced. These vegf IresRNA expression vectors (pcDNA-vegf Ires) were transfected into HCT116 (parent cells, wild-type p53), and two types of cell clones that stably overexpress vegf IresRNA were selected with an antibiotic G418. The thus-established two types of vegf IresRNA-expressing cells are hereinafter referred to as vegf Ires-#1 and vegf Ires-#2. Furthermore, as a mock treatment, plasmid vectors pcDNA3.1 lacking the above-described insert were transfected into HCT116 cells, and the transfect cell clones were selected with the antibiotic G418. These cell clones were hereinafter referred to as a mock. Then, expression of vegf IresRNA in these cell clones was examined by Northern blotting.
Subsequently, each of these vegf IresRNA-stably expressing cell strains was treated in the presence or absence of 5 μg/mL of an anticancer agent cisplatinin for a predetermined time (0, 6, 8, 12, 24 h). Thereafter, the expression level of p53 mRNA was analyzed by quantitative RT-PCR, and the expression level of p53 protein was analyzed by Western immunoblotting. […]

N.N.[Cl][Pt][Cl] [cisplatin]
expression of the p53 mRNA ([1]; HCT116, 5-FU 80 μmol/L, MMC 6 μg/ml or cisplatin 5 μg/ml, 0, 6, 12 hours): increased
expression of the vegf IresRNA ([1]; HCT116, cisplatin 5 μg/ml): decreased
expressions of p53 mRNA and p53 protein [2]: significant increase
